Results taken from patent US4737513A, “Novel pyrrole derivatives” (Roussel Uclaf, priority 1984, dated 1988).

System: house flies
Experiment: Study of knock-down activity of house flies (direct atomization in a Kearns and March chamber)
Assay type: in vivo
Details: concentration at 0.1 g/l; female house flies 4 days old; acetone (5%) and Isopar L
Procedure: (1) Study of knock-down activity of house flies
The test insects were female house flies 4 days old and the test was effected by direct atomization in a Kearns and March chamber using as solvent a mixture of acetone (5%) and Isopar L (petrol solvent) (quantity of solvent used, 2 ml in one second). 50 insects were used per treatment and checks were made every minute for 10 minutes, then at 15 minutes, and the KT50 was determined by the usual methods.

In order of falling “KT 50” value:
1. C=CCn1cc(C(C#N)OC(=O)[C@@H]2[C@H](C=C(Br)Br)C2(C)C)cc1C#N (stereo partly drawn) [Example 55, (R,S)-cyano-[1-(2-propenyl)-2-cyano-1H-pyrrol-4-yl]-methyl (1R,cis) 2,2-dimethyl-3-(2,2-dibromoethenyl)-cyclopropane carboxylate]  8.7 min
2. C#CCn1ccc(COC(=O)[C@@H]2[C@H](C=C(Br)Br)C2(C)C)c1 (relative stereo) [Example 6, [1-(2-propynyl)-1H-pyrrol-3-yl]-methyl (1R,cis) 2,2-dimethyl-3-(-dibromoethenyl)-cyclopropane carboxylate]  4.7 min
3. C=CCn1ccc(COC(=O)[C@@H]2[C@H](/C=C(/F)C(=O)OCC)C2(C)C)c1 [Example 56, 1-(2-propenyl-1H-pyrrol-3-yl)-methyl (1R,cisΔE) 2,2-dimethyl-3-(2-fluoro-3-ethoxy 3-oxo-1-propenyl)-cyclopropane carboxylate]  4.0 min
4. C#CCn1ccc(C(C#N)OC(=O)[C@@H]2[C@H](/C=C(/F)C(=O)OCC)C2(C)C)c1C#N (stereo partly drawn) [Example 67, (R,S) cyano[1-(2-propynyl)-2-cyano-1H-pyrrol-3-yl]-methyl (1R,cisΔE) 2,2-dimethyl-3-(2-fluoro-3-ethoxy-3-oxo-1-propenyl)-cyclopropane carboxylate]  3.8 min
5. C=CCn1ccc(C(C#N)OC(=O)[C@@H]2[C@H](C=C(Br)Br)C2(C)C)c1 (stereo partly drawn) [Example 50, (R,S)-cyano-[1-(2-propenyl)-1H-pyrrol-3-yl]methyl (1R,cis) 2,2-dimethyl-3-(2,2-dibromoethenyl)cyclopropane carboxylate]  3.5 min
6. C#CCn1ccc(COC(=O)[C@@H]2[C@H](/C=C(/F)C(=O)OC(C)(C)C)C2(C)C)c1 [Example 5, [1-(2-propynyl)-1H-pyrrol-3-yl]-methyl (1R,cis,ΔE) 2,2-dimethyl-3-(3-tert-butoxy-3-oxo-2-fluoro-1-propenyl)-cyclopropane carboxylate]  3.2 min
7. C#CCn1ccc(COC(=O)[C@@H]2[C@H](/C=C(/F)C(=O)OC)C2(C)C)c1 [Example 4, [1-(2-propynyl)-1H-pyrrol-3-yl]-methyl (1R,cisΔE) 2,2-dimethyl-3-(3-methoxy-3-oxo-2-fluoro-1-propenyl)-cyclopropane carboxylate]  2.4 min
8. C=CCn1cc(COC(=O)[C@@H]2[C@H](/C=C(/F)C(=O)OCC)C2(C)C)cc1C#N [Example 53, [1-(2-propenyl)-2-cyano-1H-pyrrol-4-yl]methyl (1R,cisΔE) 2,2-dimethyl-3-[2-fluoro-2-ethoxy-2-oxo-1-propenyl]cyclopropane carboxylate]  2.4 min
9. C#CCn1cc(C(C#N)OC(=O)[C@@H]2[C@H](/C=C(/F)C(=O)OCC)C2(C)C)cc1C#N (stereo partly shown) [Example 44]  2.2 min
10. C#CCn1cc(C(C)OC(=O)[C@@H]2[C@H](/C=C(/F)C(=O)OCC)C2(C)C)cc1C#N (stereo partly drawn) [Example 60, [1-(2-propynyl)-2-cyano-1H-pyrrol-4-yl]-ethyl (1R,cisΔE) 2,2-dimethyl-3-(2-fluoro-3-ethoxy-3-oxo-1-propenyl)-cyclopropane carboxylate]  1.8 min
11. C#CCn1ccc(C(C#N)OC(=O)[C@@H]2[C@H](/C=C(/F)C(=O)OCC)C2(C)C)c1 (stereo partly drawn) [Example 15, cyano-[1-(2-propynyl)-1H-pyrrol-3-yl]-methyl (1R,cisΔE) 2,2-dimethyl-3-(3-ethoxy-3-oxo-2-fluoro-1-propenyl)-cyclopropane carboxylate]  1.8 min
12. C#CCn1ccc(COC(=O)[C@@H]2[C@H](/C=C(/F)C(=O)OCC)C2(C)C)c1C#N [Example 52, [1-(2-propynyl)-2-cyano-1H-pyrrol-3-yl]methyl (1R,cis) 2,2-dimethyl-3-(2-fluoro-2-ethoxy-2-oxo-1-propenyl)cyclopropane carboxylate]  1.5 min

Same assay, conditions: general statement in the description

In the case of `C#CCn1ccc(C(C#N)OC(=O)[C@@H]2[C@H](/C=C(/F)C(=O)OCC)C2(C)C)c1` (stereo partly drawn) [Example 15, cyano-[1-(2-propynyl)-1H-pyrrol-3-yl]-methyl (1R,cisΔE) 2,2-dimethyl-3-(3-ethoxy-3-oxo-2-fluoro-1-propenyl)-cyclopropane carboxylate], the knock-down power is reported as “particularly remarkable”.
